Measured values taken from patent US20030086986A1, “Ophthalmic, pharmaceutical and other healthcare preparations with naturally occurring plant compounds, extracts and derivatives” (priority 1998, published 2003).
Like-named read-outs stand apart in the source and are kept apart here.

How the values were obtained:
Type in all cases: cell-based
Aspergillus niger = assay: Log kill test of preservative/disinfectant formulae (challenge inoculum, plating over time)
Description: (§1) Disinfectant and preservative tests are most often performed by challenging the preparation with a concentrated inoculum (e.g., 10^5-10^6 colony forming units (cfu)/ml) of each test organism. Over time samples are taken and plated on a growth medium to estimate the number of live organisms remaining at each time point.
(§2) The method for evaluating the effectiveness of a disinfectant for contact lenses generally requires measuring the ability of the agent to reduce the numbers of viable infective organisms during a period of time consistent with the normal period of storage of contact lenses between wearing times. This reduction of numbers of organisms is typically reported in terms of the change in the common logarithm (base 10 logarithm) of the microbial population as a result of exposure to the antimicrobial or disinfecting agent. For example, if the agent has effected a reduction in the concentration of a particular organisms in a challenge solution from 10^6 colony forming units (cfu) per milliliter (ml) to 10^2 cfu/ml within six hours of exposure then the change, or “log reduction”, of the organism as a result of exposure to the agent would be 4.0 (logs). In other words, the number of viable organisms have been reduced to one ten-thousandth of the original level.
(§3) In procedures for verifying the effectiveness of ophthalmic antimicrobial agents generally recognized guidelines call for the use of Candida albicans (a yeast), Fusarium solani or Aspergillus niger (both molds), Pseudomonas aeruginosa (a Gram-negative bacterium), Staphylococcus aureus (a Gram-positive bacterium), Serratia marcescens (a Gram-negative bacterium) and Escherichia coli (a bacterium common in the human gastrointestinal tract).
(§4) Various compounds/extracts were tested in the presence of either a phosphate or a borate-buffered solution. The test organisms included (S. aureus.=Staphylococcus aureus; Ps. aeruginosa=Pseudomonas aeruginosa; E. coli=Escherichia coli; C. albicans.=Candida albicans; and A. niger=Aspergillus niger) and inspected at various time intervals to determine the “log kill” of the various formulations.

Staphylococcus aureus = assay: as above
Description: as §1, §2, §3, §4

Candida albicans = assay: as above
Description: as §1, §2, §3, §4

[1] = system: S. aureus, Ps. aeruginosa, E. coli, C. albicans, A. niger; assay: Preservative/disinfectant effectiveness against the panel of test organisms (USP Category 1A Preservative Effectiveness Test); conditions: for Effective Concentration (ppm) meeting the USP Category 1A Preservative Effectiveness Test requirements: summary of formulae that meet the requirements
Description: as §1, §3, §4
A recognized standard for evaluating the effectiveness of a preservation agent in contain in the USP. For the reader's convenience the formulae, which meet the USP Category 1A Preservative Effectiveness Test requirements, are summarized in Table 10.

L929 cell = assay: Cytotoxicity assay: high water-content soft contact lenses cycled five days in test solution, then L929 cell cytotoxicity model
Experimental: The present inventors reported earlier on the anti-cytotoxic properties of certain natural products. Experiments were under taken to confirm the anti-cytotoxic effects of Allantoin in particular. […] Besides the usual microbial tests, the material was also used in a cytotoxicity assay, which consisted of cycling high water-content soft contact lenses for five days in each test solution. Then the solution saturated lenses were tested in a L929 cell cytotoxicity model. Cytotoxicity was rated from 0 to 5 with 2 or greater indicating cytotoxicity.

Serratia marcescens = assay: Log kill test of disinfectant formulae (6 hours)
Description: as §1
The method for evaluating the effectiveness of a disinfectant for contact lenses generally requires measuring the ability of the agent to reduce the numbers of viable infective organisms during a period of time consistent with the normal period of storage of contact lenses between wearing times. This reduction of numbers of organisms is typically reported in terms of the change in the common logarithm (base 10 logarithm) of the microbial population as a result of exposure to the antimicrobial or disinfecting agent. For example, if the agent has effected a reduction in the concentration of a particular organisms in a challenge solution from 10^6 colony forming units (cfu) per milliliter (ml) to 10^2 cfu/ml within six hours of exposure then the change, or “log reduction”, of the organism as a result of exposure to the agent would be 4.0 (logs). In other words, the number of viable organisms have been reduced to one ten-thousandth of the original level. […]

[2] = Cytotoxicity test, USP 24 <87> Biological Reactivity Tests, In Vitro, USP Elution
Experimental: Cytotoxicity studies were also performed to determine the potential of these natural compounds, extracts and derivatives for irritation and discomfort when used as disinfecting or preservative agents. The cytotoxicity test analysis was performed in accordance with USP 24 <87> Biological Reactivity Tests, In Vitro, and USP Elution. Two ml of each sample were diluted with 10 ml of 1× MEM. The biological reactivity were described and rated as 0 (no reactivity), 1 (slight reactivity), 2 (mild reactivity), 3 (moderate reactivity), 4 (severe reactivity).

COc1ccc2cc3[n+](cc2c1OC)CCc1cc2c(cc1-3)OCO2 [Berberine]
Effectiveness against Aspergillus niger, in words (Aspergillus niger): remarkably effective
Effectiveness against Staphylococcus aureus, in words (Staphylococcus aureus): remarkably effective
Effectiveness against Candida albicans, in words (Candida albicans): remarkably effective

O=C(/C=C/c1ccc(O)c(O)c1)O[C@@H]1C[C@](O)(C(=O)O)C[C@@H](O)[C@H]1O [Chlorogenic Acid]
Overall disinfectant/preservative effectiveness against the test organisms, in words [1]: quite effective
Effective Concentration (ppm) meeting the USP Category 1A Preservative Effectiveness Test requirements [1]: 1000 ppm

Oc1ccc(C=Cc2cc(O)cc(O)c2)cc1 [Resveratrol]
Overall disinfectant/preservative effectiveness against the test organisms, in words [1]: wide range of effectiveness

O.O.O=c1c(O)c(-c2ccc(O)c(O)c2)oc2cc(O)cc(O)c12 [Quercetin Dihydrate]
Overall disinfectant/preservative effectiveness against the test organisms, in words ([1]; statement of the text, listed as Quercetin dihydrate, Dihydrate): extremely broad effectiveness
Overall disinfectant/preservative effectiveness against the test organisms, in words ([1]; statement of the text, listed as Quercetin, Dihydrate): very good to excellent control

NC(=O)NC1NC(=O)NC1=O (centres unmarked) [Allantoin]
Cytotoxicity in L929 cell model, in words (L929 cell; lenses cycled five days in test solution): mitigate the cytotoxic characteristics of PHMB
Effectiveness against Serratia marcescens, in words (Serratia marcescens): effective to augment the killing
Effectiveness against Aspergillus niger, in words (Aspergillus niger): quite effective
Effectiveness against Candida albicans, in words (Candida albicans): quite effective

C/C=C1/[C@H](O[C@@H]2O[C@H](CO)[C@@H](O)[C@H](O)[C@H]2O)OC=C(C(=O)OC)[C@H]1CC(=O)OCCc1ccc(O)c(O)c1 [Oleuropein]
Grade (biological reactivity) ([2]; 8.3 ppm): 0
Grade (biological reactivity) ([2]; 33.3 ppm): 0
Grade (biological reactivity) ([2]; 166.7 ppm): 0

polyhexamethyl biguanide [PHMB, reference compound]
Cytotoxicity in L929 cell model, in words (L929 cell): significant level of cytotoxicity
Overall disinfectant/preservative effectiveness against the test organisms, in words [1]: extremely effective against the tested bacteria
Effectiveness against Candida albicans, in words (Candida albicans): only moderately effective

COc1cc(/C=C/C(=O)O)ccc1O [Ferulic Acid]
Overall disinfectant/preservative effectiveness against the test organisms, in words [1]: quite effective
Effective Concentration (ppm) meeting the USP Category 1A Preservative Effectiveness Test requirements [1]: 1000 ppm
Effectiveness against Candida albicans, in words (Candida albicans): better activity

OCCc1ccc(O)c(O)c1 [Hydroxytyrosol, 3,4-dihydroxy-phenylethanol]
Grade (biological reactivity) ([2]; 33.3 ppm): 0
Effective Concentration (ppm) meeting the USP Category 1A Preservative Effectiveness Test requirements [1]: 200 ppm
